From ChEMBL document CHEMBL1134497, “Soluble 2-substituted aminopyrido[2,3-d]pyrimidin-7-yl ureas. Structure-activity relationships against selected tyrosine kinases and exploration of in vitro and in vivo anticancer activity” (J Med Chem, 2001)

Experiments:
SW-620 = test: Inhibition of human colon carcinoma SW-620 cell proliferation; type: functional, cell-based
HCT-8 = test: Inhibition of human colon carcinoma HCT-8 cell proliferation; type: functional, cell-based
[1] = target: Proto-oncogene tyrosine-protein kinase Src (Gallus gallus, UniProt P00523); test: Ability to prevent phosphorylation of avian c-Src TK
C6 = test: Inhibition of C-6 rat glioma cell proliferation; type: functional, cell-based
[2] = target: T1, Platelet-derived growth factor receptor (PDGFr) (Rattus norvegicus, UniProt P20786+Q05030); test: (§1) Inhibition of PDGF receptor autophosphorylation in rat aortic vascular smooth muscle cells; type: functional
HT-29 = test: Inhibition of human colon carcinoma HT-29 cell proliferation; type: functional, cell-based
[3] = target: T1, Platelet-derived growth factor receptor (PDGFr); test: as §1
Protein kinase C (PKC) = test: Inhibition of protein kinase C; type: protein assay
[4] = Inhibition of MEK1/ERK (MAP Kinase kinase) in cascade assay
Insulin receptor = Insulin receptor (Homo sapiens, UniProt P06213); test: Inhibition of insulin receptor kinase
Sequence of Insulin receptor (P06213 28-758 limits assumed): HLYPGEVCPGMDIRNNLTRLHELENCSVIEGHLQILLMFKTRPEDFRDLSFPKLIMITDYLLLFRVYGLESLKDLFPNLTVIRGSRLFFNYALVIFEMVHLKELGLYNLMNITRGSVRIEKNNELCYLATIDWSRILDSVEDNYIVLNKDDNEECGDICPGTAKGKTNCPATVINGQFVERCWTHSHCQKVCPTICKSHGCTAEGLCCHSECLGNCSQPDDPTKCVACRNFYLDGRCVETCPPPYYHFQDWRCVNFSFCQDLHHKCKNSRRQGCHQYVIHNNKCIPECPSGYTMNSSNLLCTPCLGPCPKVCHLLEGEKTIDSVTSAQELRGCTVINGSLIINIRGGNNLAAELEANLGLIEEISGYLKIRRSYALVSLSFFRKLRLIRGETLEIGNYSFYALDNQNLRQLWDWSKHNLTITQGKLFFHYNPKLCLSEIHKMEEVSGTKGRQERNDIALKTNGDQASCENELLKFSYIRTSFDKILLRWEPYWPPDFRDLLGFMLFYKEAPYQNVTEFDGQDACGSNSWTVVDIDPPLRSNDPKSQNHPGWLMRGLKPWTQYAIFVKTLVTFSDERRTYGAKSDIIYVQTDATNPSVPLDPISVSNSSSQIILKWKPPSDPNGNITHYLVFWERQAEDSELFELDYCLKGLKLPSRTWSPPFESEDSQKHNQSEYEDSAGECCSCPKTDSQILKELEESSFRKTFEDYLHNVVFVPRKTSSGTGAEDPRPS
Sequence of Insulin receptor (P06213 763-1382 limits assumed): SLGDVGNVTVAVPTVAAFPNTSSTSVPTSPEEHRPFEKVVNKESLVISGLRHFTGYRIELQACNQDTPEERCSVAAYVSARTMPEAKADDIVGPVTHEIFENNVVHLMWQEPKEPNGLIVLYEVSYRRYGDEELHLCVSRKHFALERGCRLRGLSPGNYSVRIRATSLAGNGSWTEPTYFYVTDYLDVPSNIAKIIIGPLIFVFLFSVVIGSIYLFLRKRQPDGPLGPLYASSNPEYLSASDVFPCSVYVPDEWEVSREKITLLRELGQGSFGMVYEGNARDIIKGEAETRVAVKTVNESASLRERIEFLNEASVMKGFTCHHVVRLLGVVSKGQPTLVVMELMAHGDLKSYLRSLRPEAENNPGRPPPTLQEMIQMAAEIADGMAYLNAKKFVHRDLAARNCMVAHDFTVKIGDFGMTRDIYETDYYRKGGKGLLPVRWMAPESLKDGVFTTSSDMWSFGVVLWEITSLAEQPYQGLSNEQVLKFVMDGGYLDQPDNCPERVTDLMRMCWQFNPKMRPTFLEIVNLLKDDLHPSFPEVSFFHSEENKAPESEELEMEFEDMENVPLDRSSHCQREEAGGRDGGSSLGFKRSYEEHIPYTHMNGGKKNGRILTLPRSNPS

[5] = target: Cyclin-dependent kinase 4 (Homo sapiens, UniProt P11802); test: Inhibition of cyclin dependent kinase 4 (CDK4)
Sequence of Cyclin-dependent kinase 4 (P11802 whole entry): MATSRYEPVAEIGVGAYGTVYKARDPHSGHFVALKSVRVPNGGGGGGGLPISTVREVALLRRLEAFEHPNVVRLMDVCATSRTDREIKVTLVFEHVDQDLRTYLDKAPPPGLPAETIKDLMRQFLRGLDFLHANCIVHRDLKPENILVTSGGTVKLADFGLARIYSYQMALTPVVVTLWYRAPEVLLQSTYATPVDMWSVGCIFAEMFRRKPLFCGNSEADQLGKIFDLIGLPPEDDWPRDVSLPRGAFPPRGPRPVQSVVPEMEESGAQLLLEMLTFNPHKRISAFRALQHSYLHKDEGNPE

Row | IC50 (SW-620) | IC50 (HCT-8) | IC50 [1] | IC50 [2] | IC50 (HT-29) | IC50 [3] | IC50 (Protein kinase C (PKC)) | IC50 [4] | IC50 (Insulin receptor) | IC50 [5] | SMILES | IC50 (C6)
1 | 4.1 µM | 4 µM | 0.015 µM | 0.37 µM | 1.5 µM | – | – | – | – | – | CN1CCN(CCCNc2ncc3cc(-c4c(Cl)cccc4Cl)c(NC(=O)Nc4ccccc4)nc3n2)CC1 | 6.7 µM
2 | 2.6 µM | 3.2 µM | 0.0075 µM | – | 0.8 µM | 1.2 µM | > 50 µM | 5 µM | > 50 µM | > 40 µM | CCN(CC)CCCCNc1ncc2cc(-c3c(Cl)cccc3Cl)c(NC(=O)Nc3ccccc3)nc2n1 | 8.1 µM
